Patent US12630536B2, “Cyanotriazine derivative, preparation method therefor, and application thereof” (Chengdu Fanxi Biopharma Co., LTD., priority 2020, dated 2026)

System: golden hamsters fed with high-fat feedstuffs (hyperlipidemia model)
Experiment: In-vivo pharmacodynamic test, high-fat feed hyperlipidemia model
Settings: oral once per day, 4 weeks
Protocol: Administration mode: oral administration was carried out once per day with a time interval of 24 hours for 4 consecutive weeks. During the experiment, the animals were weighed twice per week, and a remaining amount and an adding amount of the feedstuffs were recorded before each blood sampling detection for calculating a food intake of each group of animals during administration.
The food utilization rate represents a weight gain in gram of an animal taking per 100 g of feedstuffs, so that food utilization rate=weight gain (g)/food intake (100 g)×100%.

`Cn1cnc2ccc(Oc3c(Br)cc(-n4nc(C#N)c(=O)[nH]c4=O)cc3Br)cc21` [Compound 1, 2-(3,5-dibromo-4-((1-methyl-1H-benzo[d]imidazol-6-yl)oxy)phenyl)-3,5-dioxo-2,3,4,5-tetra hydro-1,2,4-triazine-6-carbonitrile] was tested, and the “food utilization rate (weight gain (g)/food intake (100 g)×100%)” value was “reduced significantly” and the “level of triglyceride in blood (TG)” value (5 and 15 mg/kg, compared with the model group) was “significantly reduces”.
